Test results published in article PMC10386076, “Discovery of RC-752, a Novel Sigma-1 Receptor Antagonist with Antinociceptive Activity: A Promising Tool for Fighting Neuropathic Pain” (Pharmaceuticals, 2023).

What was measured:
PC12 cells = assay: NGF-induced neurite outgrowth assay in PC12 cells; format: cell-based; settings: for effect on percentage of differentiated PC12 cells, co-administration with PRE-084: 0.25 μM and 2.5 μM with 10 μM PRE-084, vs PRE-084; for effect on NGF-induced neurite outgrowth, compound alone: 0.25 μM and 2.5 μM, vs NGF
Experimental: At 80% confluence, the cells were either split to allow a further culture expansion or plated onto 48-well flat-bottom plates previously coated with poly-L-ornithine (Sigma Aldrich, Milan, Italy) at the final concentration of 10 μg/cm^2. The cells were plated at low density (2500 cells/well) to allow proper neurite elongation. The PC12 cells were mechanically detached from the flask to avoid cell-surface receptor cleavage and to preserve the correct binding of NGF to the TrkA receptors. To minimize detachment stress, the cells were left in PM for 24 h to recover. […] PRE-084 (10 µM), an S1R agonist, was used to verify that the effects of the selected compounds were due to the S1R modulation. In CTR conditions, the cells were incubated with the drug vehicle. For all the ligands, two replicates per concentration were performed in at least 3 experiments with different PC12 batches.
After 72 h incubation in DM, the cells were fixed with a 4% paraformaldehyde solution (pH 7.4). To allow the neurite visualization with a bright-field microscope, the cells were stained with the Harris Hematoxylin solution (Sigma Aldrich). After staining, images of six fields per well were acquired with a digital camera linked to a bright-field inverted microscope (Optika) (20× magnification). […] Only the cells bearing a neurite as long as their soma’s diameter were identified as differentiated cells. The number of differentiated cells was expressed as the percentage of differentiated cells over the total number of cells.

S1R = target: T1, S1R (Cavia porcellus, UniProt Q60492); assay: S1R radioligand displacement binding assay ([3H]-(+)-pentazocine); design: species or system guinea pig; settings: for Selectivity (Ki S2R/Ki S1R): ratio Ki S2R/Ki S1R
T1 construct: tissue Harlan-Winkelmann, Borchen, Germany; host or cells: guinea pig brain membrane homogenate
Experimental: (R/S)-1a–3e were first evaluated for their binding affinity toward the S1R and S2R in a radioligand displacement assay. […] Nonspecific binding was determined using non-radiolabeled (+)-pentazocine and haloperidol in excess. All the binding experiments were carried out in duplicate. […] Haloperidol was used as a control compound in both assays.
Five guinea pig brains were homogenized with the potter (500–800 rpm, 10 up and down strokes) in 6 volumes of cold 0.32 M sucrose. The suspension was centrifuged at 1200× g for 10 min at 4 °C. […] This procedure was repeated twice. The final pellet was resuspended in 56 volumes of buffer and frozen ([…]) in 1.5 mL portions containing about 1.5 mg protein/mL.
The test compound solutions were prepared by dissolving approximately 10 µmol (usually 2–4 mg) of test compound in dimethyl sulfoxide (DMSO, unless otherwise specified), so that a 10 mM stock solution was obtained. To obtain the required test solutions for the assay, the DMSO stock solution was diluted with the respective assay buffer. The filtermats were presoaked in 0.5% aqueous polyethylenamine solution for 2 h at r.t. before use. All the binding experiments were carried out in duplicate in 96-well multiplates. The concentrations given are the final concentrations in the assay. […] The receptor preparation was always added last. During the incubation, the multiplates were shaken at a speed of 500–600 rpm at the specified temperature. […] During the filtration each well was washed five times with 300 µL of water. Subsequently, the filtermats were dried at 95 °C. The solid scintillator was melted on the dried filtermats at 95 °C for 5 min. After the solidifying of the scintillator at r.t., the trapped radioactivity in the filtermats was measured with the scintillation analyzer. Each position on the filtermat corresponding to one well of the multiplate was measured for 5 min with the [^3H]-counting protocol. The overall counting efficiency was 20%. The IC50 values were calculated with GraphPad Prism 3.0 (GraphPad Software, San Diego, CA, USA) by nonlinear regression analysis. The IC50 values were subsequently transformed into Ki values using the equation of Cheng and Prusoff. All the experiments were carried out in duplicates. Compounds with high S1R affinity were tested in three independent experiments, and their Ki values are given as mean value ± SEM from the three measurements. […] (22.0 Ci/mmol; Perkin-Elmer). […] The nonspecific binding was determined with 10 µM unlabeled (+)-pentazocine.

HeLa cells = assay: AQP-mediated osmotic water permeability assay (stopped-flow light scattering); settings: pre-treatment 20 μM, heat stress 42 °C 3 h
Experimental: As an orthogonal assay to determine the functional profile of our compounds, the effect on AQP-mediated water permeability was investigated. AQPs are a family of transmembrane proteins involved in the transport of water and other small molecules (e.g., H2O2) through cell membranes. AQP functions are thus critical in ensuring reactive oxygen species (ROS) scavenging and cell survival. […] Briefly, the osmotic water permeability of HeLa cells was measured by a stopped-flow light scattering method and expressed as a percentage of k relative.
Osmotic water permeability was measured in the HeLa cell suspension by the stopped-flow light scattering method, as previously described. The experiments were performed at 25 °C on the stopped-flow apparatus (RX2000, Applied Photophysics, Leatherhead, UK) with a pneumatic drive accessory (DA.1, Applied Photophysics) straightforwardly coupled with a Varian Cary 50 spectrometer (Varian Australia Pty Ltd., Mulgrave, Australia). Briefly, scattered light intensity with a dead time of 6 ms was recorded at a wavelength of 450 nm. […] To evaluate the effect of the test compounds on water permeability, the HeLa cells were divided into different groups: (1) controls, cells incubated at r.t. (21 °C) in the presence of the same volume of methanol as that of the treated cells; (2) heat-stressed cells, cells heat-treated in a water thermostatic and shacking bath at 42 °C for 3 h; (3) heat-stressed cells pre-treated with the test compounds at a 20 µM final concentration (dissolved in methanol).

T1 sequence (Q60492 whole entry): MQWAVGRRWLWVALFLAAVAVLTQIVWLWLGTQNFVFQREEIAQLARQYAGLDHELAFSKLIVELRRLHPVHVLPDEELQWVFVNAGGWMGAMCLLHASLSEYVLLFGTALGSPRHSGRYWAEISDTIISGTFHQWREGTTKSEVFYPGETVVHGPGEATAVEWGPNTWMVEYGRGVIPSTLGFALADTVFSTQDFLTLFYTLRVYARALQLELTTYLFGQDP

| Compound | Ki (S1R) [nM] | Selectivity (Ki S2R/Ki S1R) (S1R) | also measured |
| --- | --- | --- | --- |
| NGF |  |  | differentiation, % of PC12 cells (PC12 cells; NGF alone at 2.5 nM): 22 ± 2% |
| CCN(CC)CCC(CO)c1ccc2ccccc2c1 (stereo not drawn) [Compound 2b, 4-(diethylamino)-2-(naphthalen-2-yl)butan-1-ol] | 110 ± 25 | 10 |  |
| COc1ccc2cc(C(CO)CCN(C)Cc3ccccc3)ccc2c1 (stereo not drawn) [Compound 3c, 4-(benzyl(methyl)amino)-2-(6-methoxynaphthalen-2-yl)butan-1-ol] | 20 ± 3 | 7 |  |
| OCC(CCN1CCCCC1)c1ccc2ccccc2c1 (stereo not drawn) [Compound 2d, 2-(naphthalen-2-yl)-4-(piperidin-1-yl)butan-1-ol] | 15 ± 6 | 11 | effect on percentage of differentiated PC12 cells, co-administration with PRE-084 (PC12 cells): significantly reduced; effect on NGF-induced neurite outgrowth, compound alone (PC12 cells): did not significantly enhance; effect on water permeability in heat-stressed HeLa cells (HeLa cells): in line with that of S1R antagonists |
| OCC(CCN1CCC(Cc2ccccc2)CC1)c1ccc2ccccc2c1 (stereo not drawn) [Compound 2e, 4-(4-benzylpiperidin-1-yl)-2-(naphthalen-2-yl)butan-1-ol] | 25 ± 4 | 13 |  |
| CCN(CC)CCC(CO)c1ccc(-c2ccccc2)cc1 (stereo not drawn) [Compound 1b, 2-([1,1’-biphenyl]-4-yl)-4-(diethylamino)butan-1-ol] | 20 ± 4 | 34 |  |
| OCC(CCN1CCC(Cc2ccccc2)CC1)c1ccc(-c2ccccc2)cc1 (stereo not drawn) [Compound 1e, 2-([1,1’-biphenyl]-4-yl)-4-(4-benzylpiperidin-1-yl)butan-1-ol] | 94 ± 12 | 2 |  |
| COc1ccc2cc(C(CO)CCN3CCCCC3)ccc2c1 (stereo not drawn) [Compound 3d, 2-(6-methoxynaphthalen-2-yl)-4-(piperidin-1-yl)butan-1-ol] | 38 ± 9 | 32 |  |
| O=C(OCCN1CCOCC1)C1(c2ccccc2)CCCCC1 [PRE-084, reference compound] |  |  | neurite outgrowth, % of PC12 cells (PC12 cells; PRE-084 at 10 μM, with NGF): 36 ± 4%; effect on water permeability in heat-stressed HeLa cells (HeLa cells): effective in restoring water permeability |
| OCC(CCN1CCOCC1)c1ccc2ccccc2c1 (stereo not drawn) [Compound 2a, 4-morpholino-2-(naphthalen-2-yl)butan-1-ol] | 206 ± 37 | 31 |  |
| COc1ccc2cc(C(CO)CCN3CCOCC3)ccc2c1 (stereo not drawn) [Compound 3a, 2-(6-methoxynaphthalen-2-yl)-4-morpholinobutan-1-ol] | 324 ± 10 | 4 |  |
| CN(CCC(CO)c1ccc2ccccc2c1)Cc1ccccc1 (stereo not drawn) [Compound 2c, 4-(benzyl(methyl)amino)-2-(naphthalen-2-yl)butan-1-ol] | 9.5 ± 1.8 | 4 |  |
| OCC(CCN1CCOCC1)c1ccc(-c2ccccc2)cc1 (stereo not drawn) [Compound 1a, 2-([1,1’-biphenyl]-4-yl)-4-morpholinobutan-1-ol] | 13 ± 3 | 24 | effect on percentage of differentiated PC12 cells, co-administration with PRE-084 (PC12 cells): significantly reduced; effect on NGF-induced neurite outgrowth, compound alone (PC12 cells): did not significantly enhance; effect on water permeability in heat-stressed HeLa cells (HeLa cells): in line with that of S1R antagonists |
| CCN(CC)CCC(CO)c1ccc2cc(OC)ccc2c1 (stereo not drawn) [Compound 3b, 4-(diethylamino)-2-(6-methoxynaphthalen-2-yl)butan-1-ol] | 87 ± 28 | 14 |  |
| COc1ccc2cc(C(CO)CCN3CCC(Cc4ccccc4)CC3)ccc2c1 (stereo not drawn) [Compound 3e, 4-(4-benzylpiperidin-1-yl)-2-(6-methoxynaphthalen-2-yl)butan-1-ol] | 85 ± 11 | 0.6 |  |
| CCCN(CCC)CCc1ccc(OC)c(OCCc2ccccc2)c1 [NE-100, reference compound] |  |  | effect on water permeability in heat-stressed HeLa cells (HeLa cells): has no effect |
